Test results from patent EP2878677A1, “Activators of protein phosphatase 5” (Deutsches Zentrum für Neurodegenerative Erkrankungen e.V. …, priority 2013, dated 2015).

How the values were obtained:
Type in all cases: biochemical, C. elegans
PPH-5 = biological target: T1, PPH-5 (Caenorhabditis elegans, UniProt Q9NES8); assay: pNPP-based phosphatase assay with nematode PPH-5; settings: for Kd: apparent KD-value in the pNPP-based assay, 20 °C; for effect on the enzymatic activity of PPH-5 in the compound screen: initial screen of 15,000 compounds, pNPP, P5SAs at 50 ng/mL
T1 construct: made in house
T1 sequence (Q9NES8 1-496): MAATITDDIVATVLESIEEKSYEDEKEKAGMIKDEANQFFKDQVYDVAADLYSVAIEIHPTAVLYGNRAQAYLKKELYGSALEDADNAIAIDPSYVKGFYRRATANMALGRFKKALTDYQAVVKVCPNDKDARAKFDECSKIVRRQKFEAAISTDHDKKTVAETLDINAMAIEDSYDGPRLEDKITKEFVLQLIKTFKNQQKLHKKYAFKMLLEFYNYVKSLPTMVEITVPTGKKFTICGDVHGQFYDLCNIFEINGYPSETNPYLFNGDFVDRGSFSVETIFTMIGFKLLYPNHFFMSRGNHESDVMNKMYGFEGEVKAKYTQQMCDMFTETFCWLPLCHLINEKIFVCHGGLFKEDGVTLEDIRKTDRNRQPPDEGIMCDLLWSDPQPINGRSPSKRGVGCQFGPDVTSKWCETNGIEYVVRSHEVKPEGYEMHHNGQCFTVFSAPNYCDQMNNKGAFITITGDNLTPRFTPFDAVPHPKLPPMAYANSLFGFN
Description: At some instances, the present application refers to "measuring the enzymatic activity" of an enzyme. As used herein, this means that a measured value that is proportional to or reflects the enzymatic activity of that enzyme is measured. For example, the present application may refer to "measuring the enzymatic activity of protein phosphatase 5". Typically, this means that an in vitro reaction of protein phosphatase 5 with a suitable substrate is carried out.As the substrate para-nitrophenyl phosphate (pNPP) is used. The conditions for the phosphatase reaction are 40 mM HEPES/KOH, 20 mM KCl, 5 mM MnCl2, 1 mM DTT, pH 7.5. The reaction is carried out at 20° C. The starting concentration of pNPP is 60 mM. The concentration of the compound to be tested, if present, is in the range of 50-500 nM, preferably in the range of 100-250 nM, more preferably 50, 250 or 500 nM, more preferably 250 nM. As phosphatase, bacterially expressed and purified phosphatase is used. The concentration of the phosphatase in the reaction is 30 nM. The rate at which the dephosphorylation of this substrate proceeds is monitored, typically by measuring the rate of formation of the reaction product by spectroscopic measurements (dephosphorylation of pNPP, e.g., results in generation of p-nitrophenol, a chromogenic product with strong absorbance at about 410 nm (extinction coefficient ε = 15100 cm^-1M^-1), thus allowing to monitor generation of the reaction product by monitoring the absorbance at 410 nm). If the reaction is carried out in the presence of an excess of substrate, the initial velocity at which the reaction product is generated (i.e. the slope of the initial phase of the curve in a graph plotting the absorbance at 410 nm over time) is proportional to the enzymatic activity of protein phosphatase 5under the specific reaction conditions used. Alternatively, after starting the phosphatase reaction the reaction may be allowed to proceed for a defined incubation period (usually 30 minutes), then the reaction is stopped (for example by addition of a small volume of 1 M NaOH), and the absorbance at 410 nm is measured. Upon subtraction of the absorbance of a negative control (a reaction carried out with a non-functional, for example pre-boiled, phosphatase), the obtained value is proportional to the enzymatic activity of protein phosphatase 5 under the specific reaction conditions used (since the reaction is carried out in the presence of an excess of substrate and the incubation period is chosen such that the reaction is stopped while it is still in the quasi-linear Phase). Phosphatase activity was followed by the conversion of para-nitrophenyl phosphate (pNPP) to para-nitophenole and absorption of the product at 410 nm (ε: 15100 cm^-1 M^-1) in a Varian Cary 100 spectrophotometer (Agilent Technologies, Boeblingen, Germany). The reaction was measured in 40 mM HEPES/KOH, 20 mM KCl, 5 mM MnCl2, 1 mM DTT, pH 7.5 and 60 mM pNPP at 20 °C if not indicated otherwise. Phosphatase concentration ranged from 50 to 500 nM in the assay. If indicated, Hsp90/DAF-21 peptide was supplemented in the assay at a concentration of 60 μM. The protein phosphatase 5 is a highly regulated enzyme. The autoinhibition of the phosphatase is controlled by the N-terminal TPR domain and the C-terminal αJ helix, implying a complex mechanism to control the turnover rate (Yang et al., 2005). A compound screen was carried out to identify small molecules which can alter the activity of the phosphatase. The C. elegans homolog of protein phosphatase 5 was used (activity of nematode protein phosphatase 5 (PPH-5) at 20 °C: ∼0.62 sec^-1; mammalian PP5: ∼0.12 sec^-1). The homology between nematode PPH-5 and human PP5 is pronounced with a sequence conservation of almost 80% (Figure 6). Using the substrate para-nitrophenyl phosphate (pNPP), a library of 15,000 compounds was analyzed. […]

Hsc70/HSP-1 = biological target: T2, Hsc70/HSP-1 (Caenorhabditis elegans, UniProt P09446); assay: coupled regenerative ATPase assay; settings: concentrations well above the KD; also with BAG-1 and DNJ-13; 30 °C
T2 construct: made in house; host or cells: bacteria
Description: (§1) ATPase activity can be measured as described in Gaiser et al., 2009 with an ATPase assay that is carried out as a regenerative assay, wherein ADP produced during the ATPase reaction is recycled to ATP with the help of lactate dehydrogenase, NADH, phosphoenolpyruvate and pyruvate kinase. This changes the absorbance at 340 nm, when NADH is oxidized to NAD^+, giving a sensitive signal for the determination of activity. The change in absorbance at 340 nm that occurs during oxidizing of NADH to NAD^+ is measured by spectroscopic measures. Preferably, said in vitro ATPase assay is carried out at 30 °C. Preferably, said in vitro ATPase assay is carried out in the presence of 3 µM or the chaperone protein. Preferably the concentration of each of the cochaperones present is 5 µM. Preferably, the chaperones and cochaperones used are bacterially expressed proteins.
(§2) The activity of the ATPases Hsc70/HSP-1 and Hsp90/DAF-21 were assessed in a coupled regenerative ATPase assay as described before (Gaiser et al., 2009). Reactions were measured in a Varian Cary 100 spectrophotometer (Agilent Technologies, Boeblingen, Germany) at 30 °C and the depletion of NADH was followed at 340 nm. Chaperone concentration was 3 µM and cochaperones were added, when indicated, at a concentration of 5 µM.

Hsp90/DAF-21 = biological target: T3, Hsp90/DAF-21 (Caenorhabditis elegans, UniProt Q18688); assay: coupled regenerative ATPase assay; settings: concentrations well above the KD; also with AHA-1; 30 °C
T3 construct: made in house
Description: as §1, §2

T2 sequence (P09446 whole entry): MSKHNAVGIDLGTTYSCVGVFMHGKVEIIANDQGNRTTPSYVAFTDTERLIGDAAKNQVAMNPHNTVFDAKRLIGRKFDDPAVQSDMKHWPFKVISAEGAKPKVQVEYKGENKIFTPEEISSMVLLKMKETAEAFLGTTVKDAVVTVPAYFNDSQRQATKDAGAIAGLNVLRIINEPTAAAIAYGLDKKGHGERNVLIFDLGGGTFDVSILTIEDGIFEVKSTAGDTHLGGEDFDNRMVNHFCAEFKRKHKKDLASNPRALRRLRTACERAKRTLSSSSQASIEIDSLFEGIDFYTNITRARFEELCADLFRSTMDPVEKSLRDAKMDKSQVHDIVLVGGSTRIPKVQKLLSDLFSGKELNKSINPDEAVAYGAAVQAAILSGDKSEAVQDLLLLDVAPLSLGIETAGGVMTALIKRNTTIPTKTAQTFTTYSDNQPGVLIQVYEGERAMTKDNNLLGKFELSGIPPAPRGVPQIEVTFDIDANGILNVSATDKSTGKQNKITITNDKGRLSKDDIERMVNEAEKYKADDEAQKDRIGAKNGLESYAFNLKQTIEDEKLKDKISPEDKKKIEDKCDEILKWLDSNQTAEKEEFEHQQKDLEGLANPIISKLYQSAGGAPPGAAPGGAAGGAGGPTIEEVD

fold activation (PPH-5; at 714 µM) [fold]	Compound	fold activation (PPH-5; (sat.)) [fold]	Kd (PPH-5) [µM]	effect on the enzymatic activity of PPH-5 in the compound screen (PPH-5)	ATPase activity of Hsc70/HSP-1 (Hsc70/HSP-1)	ATPase activity of Hsp90/DAF-21 (Hsp90/DAF-21)	influence of MEEVD peptide on affinity to PPH-5 (PPH-5; 60 µM MEEVD peptide, titration by phosphatase assay)
	O=c1cc2nc(-c3ccc(F)cc3)nc(SCc3ccc(Br)cc3)n2[nH]1 [P5SA-4]	7.8	25.7 ± 5.5	activating effect	no additional effect	no effect	
	COc1ccc(-c2nc(Cc3ccc(Cl)cc3)no2)cc1OC [P5SA-2]	9.6	7.8 ± 1.4	activating effect	no additional effect	no effect	
	FC(F)(F)c1c2c(nc3c(-c4ccc(Cl)cc4)cnn13)CCC2 [P5SA-1]	3.7	13.3 ± 4.2	activating effect	no additional effect	no effect	
4.0	CN1CCc2c(sc(-n3cccc3)c2CNC(=O)NC23CC4CC(CC(C4)C2)C3)C1 [P5SA-3]			activating effect			
	CNC(=O)c1c(NC(=O)COCC(=O)Nc2sc3c(c2C(=O)NC)CCC3)sc2c1CCC2 [P5SA-5]	8.4	6.4 ± 1.8	activating effect	no additional effect	no effect	minor influence
